Numbers after ± are expanded uncertainties.
Settings: Liquid

ClCCCl [1,2-dichloroethane]
mass density [kg/m3]
Settings | 288.15 K | 298.15 K | 308.15 K | 318.15 K
100 kPa | 1259.9 ± 0.6 | 1245.5 ± 0.6 | 1231 ± 0.6 | 1216.4 ± 0.5
500 kPa | 1260.3 ± 0.6 | 1246.1 ± 0.6 | 1231.4 ± 0.6 | 1216.7 ± 0.6
1000 kPa | 1260.8 ± 0.6 | 1246.4 ± 0.6 | 1232 ± 0.6 | 1217.4 ± 0.6
1500 kPa | 1261.2 ± 0.7 | 1246.9 ± 0.6 | 1232.5 ± 0.6 | 1218 ± 0.6
2000 kPa | 1261.6 ± 0.7 | 1247.4 ± 0.7 | 1233 ± 0.6 | 1218.5 ± 0.6
2500 kPa | 1262.2 ± 0.7 | 1247.8 ± 0.7 | 1233.5 ± 0.7 | 1219.1 ± 0.6
3100 kPa | 1262.7 ± 0.7 | 1248.5 ± 0.7 | 1234.2 ± 0.7 | 1219.8 ± 0.6
3600 kPa | 1263.2 ± 0.8 | 1248.9 ± 0.7 | 1234.7 ± 0.7 | 1220.3 ± 0.7
4100 kPa | 1263.6 ± 0.8 | 1249.4 ± 0.7 | 1235.2 ± 0.7 | 1220.9 ± 0.7
4600 kPa | 1264 ± 0.8 | 1249.9 ± 0.8 | 1235.7 ± 0.7 | 1221.4 ± 0.7
5100 kPa | 1264.5 ± 0.8 | 1250.4 ± 0.8 | 1236.2 ± 0.8 | 1222 ± 0.7
5600 kPa | 1264.9 ± 0.8 | 1250.9 ± 0.8 | 1236.9 ± 0.8 | 1222.6 ± 0.7
6100 kPa | 1265.4 ± 0.9 | 1251.4 ± 0.8 | 1237.3 ± 0.8 | 1223.1 ± 0.8
6600 kPa | 1265.8 ± 0.9 | 1251.9 ± 0.9 | 1237.9 ± 0.8 | 1223.6 ± 0.8
7100 kPa | 1266.2 ± 0.9 | 1252.3 ± 0.9 | 1238.4 ± 0.8 | 1224.1 ± 0.8
7600 kPa | 1266.7 ± 0.9 | 1252.9 ± 0.9 | 1238.6 ± 0.9 | 1224.7 ± 0.8
8100 kPa | 1267.2 ± 1 | 1253.2 ± 0.9 | 1239.3 ± 0.9 | 1225.2 ± 0.8
8600 kPa | 1267.6 ± 1 | 1253.8 ± 0.9 | 1239.8 ± 0.9 | 1225.8 ± 0.9
9200 kPa | 1268.2 ± 1 | 1254.4 ± 1 | 1240.4 ± 0.9 | 1226.3 ± 0.9
9600 kPa | 1268.6 ± 1 | 1254.9 ± 1 | 1240.9 ± 0.9 | 1226.9 ± 0.9
10000 kPa | – | 1255.1 ± 1 | – | –
10100 kPa | 1269 ± 1 | – | 1241.3 ± 1 | 1227.5 ± 0.9
10600 kPa | 1269.4 ± 1.1 | 1255.9 ± 1 | 1241.8 ± 1 | 1227.9 ± 0.9
11100 kPa | 1269.8 ± 1.1 | 1256.4 ± 1 | 1242.3 ± 1 | 1228.4 ± 0.9
11600 kPa | 1270.3 ± 1.1 | 1256.7 ± 1.1 | 1242.8 ± 1 | 1229 ± 1
12100 kPa | 1270.7 ± 1.1 | 1257.3 ± 1.1 | 1243.4 ± 1 | 1229.5 ± 1
12500 kPa | – | – | – | 1230 ± 1
12600 kPa | 1271 ± 1.2 | 1257.6 ± 1.1 | 1243.8 ± 1.1 | –
13100 kPa | 1271.5 ± 1.2 | 1258 ± 1.1 | 1244.2 ± 1.1 | 1230.6 ± 1
13600 kPa | 1271.9 ± 1.2 | 1258.5 ± 1.1 | 1244.7 ± 1.1 | 1231 ± 1
14100 kPa | 1272.4 ± 1.2 | – | – | –
14200 kPa | – | 1259 ± 1.2 | 1245.3 ± 1.1 | 1231.6 ± 1.1
14700 kPa | 1272.9 ± 1.2 | 1259.4 ± 1.2 | 1245.8 ± 1.1 | 1232.1 ± 1.1
15200 kPa | 1273.3 ± 1.3 | 1260 ± 1.2 | 1246.4 ± 1.2 | 1232.7 ± 1.1
15600 kPa | – | – | – | 1233.1 ± 1.1
15700 kPa | 1273.7 ± 1.3 | 1260.5 ± 1.2 | 1246.8 ± 1.2 | –
16200 kPa | – | 1260.8 ± 1.3 | 1247.2 ± 1.2 | –
16300 kPa | 1274.2 ± 1.3 | – | – | 1233.8 ± 1.2
16700 kPa | – | 1261.4 ± 1.3 | 1247.7 ± 1.2 | –
16800 kPa | 1274.6 ± 1.3 | – | – | 1234.2 ± 1.2
17200 kPa | 1275 ± 1.4 | – | 1248.2 ± 1.2 | –
17300 kPa | – | 1261.9 ± 1.3 | – | 1234.8 ± 1.2
17700 kPa | 1275.4 ± 1.4 | – | – | –
17800 kPa | – | 1262.4 ± 1.3 | 1248.7 ± 1.3 | 1235.2 ± 1.2
18200 kPa | 1275.8 ± 1.4 | – | – | 1235.5 ± 1.2
18300 kPa | – | 1262.8 ± 1.4 | 1249.2 ± 1.3 | –
18600 kPa | 1276.2 ± 1.4 | – | – | –
18800 kPa | – | 1263.3 ± 1.4 | 1249.6 ± 1.3 | –
18900 kPa | – | – | – | 1236.2 ± 1.3
19000 kPa | 1276.5 ± 1.4 | – | – | –
19200 kPa | – | 1263.7 ± 1.4 | 1250.1 ± 1.3 | 1236.5 ± 1.3
19400 kPa | 1276.9 ± 1.5 | – | – | –
19700 kPa | – | 1264.1 ± 1.4 | 1250.6 ± 1.4 | 1237.1 ± 1.3
20000 kPa | 1277.3 ± 1.5 | – | – | –
20200 kPa | – | 1264.5 ± 1.4 | 1251 ± 1.4 | 1237.5 ± 1.3

ClCCCCCl [1,4-dichlorobutane]
mass density [kg/m3]
Settings | 288.15 K | 298.15 K | 308.15 K | 318.15 K
100 kPa | 1143.7 ± 3.5 | 1133.7 ± 3.4 | 1122.3 ± 3.3 | 1112 ± 3.2
500 kPa | 1144.1 ± 3.5 | 1134 ± 3.4 | 1122.7 ± 3.3 | 1112.4 ± 3.2
1000 kPa | 1144.5 ± 3.5 | 1134.4 ± 3.4 | 1123.1 ± 3.3 | 1112.8 ± 3.2
1500 kPa | 1144.8 ± 3.6 | 1134.8 ± 3.5 | 1123.5 ± 3.4 | 1113.2 ± 3.3
2000 kPa | 1145.2 ± 3.6 | 1135.2 ± 3.5 | 1123.9 ± 3.4 | 1113.7 ± 3.3
2500 kPa | 1145.5 ± 3.6 | 1135.6 ± 3.5 | 1124.3 ± 3.4 | 1114.1 ± 3.3
3000 kPa | 1145.9 ± 3.7 | – | – | –
3100 kPa | – | 1136.1 ± 3.6 | 1124.8 ± 3.5 | 1114.7 ± 3.4
3500 kPa | – | – | – | 1115 ± 3.4
3600 kPa | 1146.4 ± 3.7 | 1136.4 ± 3.6 | 1125.2 ± 3.5 | –
4100 kPa | 1146.7 ± 3.8 | 1136.8 ± 3.7 | 1125.6 ± 3.5 | 1115.5 ± 3.4
4600 kPa | 1147 ± 3.8 | 1137.2 ± 3.7 | 1126 ± 3.6 | 1115.9 ± 3.5
5100 kPa | 1147.4 ± 3.8 | 1137.6 ± 3.7 | 1126.4 ± 3.6 | 1116.3 ± 3.5
5600 kPa | 1147.7 ± 3.9 | 1137.9 ± 3.8 | 1126.9 ± 3.6 | 1116.8 ± 3.5
6100 kPa | 1148.1 ± 3.9 | 1138.4 ± 3.8 | 1127.2 ± 3.7 | 1117.3 ± 3.6
6600 kPa | 1148.5 ± 4 | 1138.7 ± 3.8 | 1127.5 ± 3.7 | 1117.7 ± 3.6
7100 kPa | 1148.9 ± 4 | 1139.1 ± 3.9 | 1128 ± 3.7 | 1118.1 ± 3.6
7600 kPa | 1149.2 ± 4 | 1139.4 ± 3.9 | 1128.4 ± 3.8 | 1118.4 ± 3.7
8100 kPa | 1149.5 ± 4.1 | 1139.8 ± 4 | 1128.8 ± 3.8 | 1118.9 ± 3.7
8600 kPa | 1149.9 ± 4.1 | 1140.2 ± 4 | 1129.2 ± 3.9 | 1119.3 ± 3.7
9200 kPa | 1150.3 ± 4.2 | 1140.6 ± 4 | 1129.6 ± 3.9 | 1119.8 ± 3.8
9600 kPa | 1150.7 ± 4.2 | 1141 ± 4.1 | 1130 ± 3.9 | 1120.2 ± 3.8
10100 kPa | 1151 ± 4.2 | 1141.4 ± 4.1 | 1130.4 ± 4 | 1120.6 ± 3.8
10600 kPa | 1151.3 ± 4.3 | – | 1130.9 ± 4 | 1121 ± 3.9
10700 kPa | – | 1141.8 ± 4.2 | – | –
11100 kPa | 1151.7 ± 4.3 | 1142.1 ± 4.2 | 1131.2 ± 4 | 1121.4 ± 3.9
11600 kPa | 1152 ± 4.4 | 1142.4 ± 4.2 | 1131.5 ± 4.1 | 1121.8 ± 3.9
12100 kPa | 1152.4 ± 4.4 | 1142.8 ± 4.3 | 1131.9 ± 4.1 | 1122.1 ± 4
12600 kPa | 1152.7 ± 4.4 | 1143.2 ± 4.3 | 1132.4 ± 4.1 | 1122.6 ± 4
13000 kPa | – | – | – | 1123 ± 4
13100 kPa | 1153.1 ± 4.5 | 1143.6 ± 4.3 | 1132.6 ± 4.2 | –
13500 kPa | 1153.3 ± 4.5 | – | – | –
13600 kPa | – | 1143.9 ± 4.4 | 1133.1 ± 4.2 | 1123.3 ± 4.1
14100 kPa | – | 1144.2 ± 4.4 | 1133.5 ± 4.2 | –
14200 kPa | 1153.8 ± 4.6 | – | – | 1123.9 ± 4.1
14700 kPa | 1154.1 ± 4.6 | 1144.6 ± 4.5 | 1133.9 ± 4.3 | 1124.4 ± 4.1
15100 kPa | – | – | 1134.2 ± 4.3 | –
15200 kPa | 1154.4 ± 4.6 | 1145 ± 4.5 | – | 1124.7 ± 4.2
15700 kPa | 1154.8 ± 4.7 | 1145.4 ± 4.5 | 1134.6 ± 4.4 | 1125.1 ± 4.2
16200 kPa | – | 1145.8 ± 4.6 | 1135 ± 4.4 | –
16300 kPa | 1155.2 ± 4.7 | – | – | 1125.4 ± 4.3
16700 kPa | – | 1146.1 ± 4.6 | 1135.3 ± 4.4 | –
16800 kPa | 1155.6 ± 4.8 | – | – | 1126 ± 4.3
17200 kPa | – | 1146.5 ± 4.7 | 1135.7 ± 4.5 | –
17300 kPa | 1155.9 ± 4.8 | – | – | 1126.3 ± 4.3
17800 kPa | 1156.2 ± 4.9 | 1146.9 ± 4.7 | 1136.1 ± 4.5 | 1126.5 ± 4.4
18300 kPa | 1156.5 ± 4.9 | 1147.2 ± 4.7 | 1136.5 ± 4.6 | 1127 ± 4.4
18800 kPa | 1156.8 ± 4.9 | 1147.6 ± 4.8 | 1136.8 ± 4.6 | 1127.4 ± 4.4
19100 kPa | 1157.1 ± 5 | – | – | –
19200 kPa | – | 1147.9 ± 4.8 | 1137.2 ± 4.6 | 1127.7 ± 4.5
19700 kPa | 1157.4 ± 5 | 1148.2 ± 4.9 | 1137.6 ± 4.7 | 1128 ± 4.5
20200 kPa | 1157.8 ± 5.1 | 1148.7 ± 4.9 | 1138 ± 4.7 | 1128.4 ± 4.5
